Where a SMILES comes first, the peptide text is derived from it. [ ]: non-standard residue; d: D form.
What was measured:
[1] = tested on: A. baumannii ATCC 17978; type: cell-based
Experimental: (§1) In the initial screening, the bactericidal activity of the synthetic peptides and their toxicity on human lung epithelial cells (A549) were evaluated.
(§2) Table S1. MICs of the six hexapeptides for A. baumannii and E. coli.
(§3) Peptides P. aeruginosa PaO1
(§4) MIC: minimal inhibitory concentration

[2] = tested on: E. coli ATCC 25922; type: cell-based
Experimental: as §1, §2, §3, §4

[3] = tested on: P. aeruginosa PaO1; type: cell-based
Experimental: as §1, §2, §3, §4

[4] = Peptide toxicity, MTT assay; type: cell-based, human; conditions: human, A549 cells
Experimental: (§5) Human type II pneumocyte cell line A549 derived from a human lung carcinoma were obtained from American Type Culture Collection (LGC, UK) and were grown in DMEM medium (Invitrogen, Spain) supplemented with 10% heat-inactivated fetal bovine serum, vancomycin (50 μg/mL), gentamicin (20 μg/mL), amphotericin B (0.25 μg/mL) (Invitrogen, Spain) and 1% HEPES (Invitrogen, Spain) in a humidified incubator, 5% CO2 at 37 °C. A549 cells were routinely passaged every 3–4 days. The cells were seeded 24 h in 96-well plates for cellular viability assay, and in 24 well plates for adhesion and immnunofluorescence assays.
(§6) Peptide toxicity. […] Prior the evaluation of the peptides cytotoxicity, A549 cells were washed three times with prewarmed PBS. Then, peptides cytotoxicity was initially assessed quantitatively by monitoring the mitochondrial reduction activity using the MTT assay as described previously. The percentage of […] was calculated from the optical density (OD) as follow: [(OD of treated cells / mean OD of non-treated cell) × 100].
(§7) Table S2. Percentages of A549 cellular viability assessed through mitochondrial reduction
(§8) activity (MTT assay) in presence of anti-OmpA hexapeptides and control peptides (SXV4 and
(§9) COL). COL: colistin. ND: not determined.
(§10) Peptides 0.25 mg/mL 0.5 mg/mL 1 mg/mL 5 mg/mL

[5] = tested on: A549 cells; experiment: Peptide toxicity, MTT assay; type: cell-based, human; conditions: 48 h, MTT, mean ± SEM
Experimental: as §5, §6, §7, §8, §9, §10

Row | MIC [1] [µg/mL] | MIC [2] [µg/mL] | MIC [3] [µg/mL] | Compound | viability at 48 h, 250 µg/mL [4] [%] | viability at 48 h, 500 µg/mL [4] [%] | viability at 48 h, 1000 µg/mL [4] [%] | Cellular viability (%) ([5]; A549, 0.5 mg/mL) | Cellular viability (%) ([5]; A549, 1 mg/mL) | Cellular viability (%) ([5]; A549, 5 mg/mL)
1 | > 500 | > 500 | > 500 | N=C(N)NCCC[C@@H]1NC(=O)[C@@H](Cc2c[nH]c3ccccc23)NC(=O)[C@@H]2CCCN2C(=O)[C@H](CCCNC(=N)N)NC(=O)[C@@H](Cc2c[nH]c3ccccc23)NC(=O)[C@@H]2CCCN2C1=O [AOA-3] (cyclo(P[dW]RP[dW]R)) | 99.27 ± 0.21 | 99.7 ± 0.14 | 99.36 ± 0.3 | – | – | –
2 | > 500 | > 500 | > 500 | N=C(N)NCCC[C@H]1NC(=O)[C@H](Cc2c[nH]c3ccccc23)NC(=O)[C@@H]2CCCN2C(=O)[C@@H](CCCNC(=N)N)NC(=O)[C@H](Cc2c[nH]c3ccccc23)NC(=O)[C@@H]2CCCN2C1=O [AOA-4] (cyclo(PW[dR]PW[dR])) | 99.47 ± 0.39 | 99.77 ± 0.17 | 100.1 ± 0.18 | – | – | –
3 | > 500 | > 500 | > 500 | O=C1N[C@@H](CO)C(=O)N2CCC[C@@H]2C(=O)N[C@@H](Cc2c[nH]c3ccccc23)C(=O)N[C@@H](CO)C(=O)N2CCC[C@@H]2C(=O)N[C@H]1Cc1c[nH]c2ccccc12 [AOA-5] (cyclo(S[dP]WS[dP]W)) | 98.86 ± 0.08 | 100 ± 0.39 | 100.1 ± 0.46 | – | – | –
4 | > 500 | > 500 | > 500 | O=C(O)CC[C@@H]1NC(=O)[C@H](Cc2c[nH]c3ccccc23)NC(=O)[C@H]2CCCN2C(=O)[C@H](CCC(=O)O)NC(=O)[C@H](Cc2c[nH]c3ccccc23)NC(=O)[C@H]2CCCN2C1=O [AOA-6] (cyclo(E[dP]WE[dP]W)) | 98.31 ± 0.35 | 99.14 ± 0.44 | 99.38 ± 0.34 | – | – | –

More lines, now with the values behind:

Row | Compound | MIC [1] [µg/mL] | MIC [2] [µg/mL] | MIC [3] [µg/mL] | viability at 48 h, 250 µg/mL [4] [%] | viability at 48 h, 500 µg/mL [4] [%] | viability at 48 h, 1000 µg/mL [4] [%] | Cellular viability (%) ([5]; A549, 0.5 mg/mL) | Cellular viability (%) ([5]; A549, 1 mg/mL) | Cellular viability (%) ([5]; A549, 5 mg/mL)
5 | N=C(N)NCCC[C@@H]1NC(=O)[C@H](Cc2c[nH]c3ccccc23)NC(=O)[C@H]2CCCN2C(=O)[C@H](CCCNC(=N)N)NC(=O)[C@H](Cc2c[nH]c3ccccc23)NC(=O)[C@H]2CCCN2C1=O [AOA-1] (cyclo(R[dP]WR[dP]W)) | > 500 | > 500 | > 500 | 98.89 ± 0.41 | 99.69 ± 0.26 | 99.7 ± 0.38 | – | – | –
6 | CC(=O)N[C@@H](Cc1c[nH]c2ccccc12)C(=O)N1CCC[C@@H]1C(=O)N[C@@H](CCCNC(=N)N)C(=O)N[C@@H](Cc1c[nH]c2ccccc12)C(=O)N1CCC[C@@H]1C(=O)N[C@@H](CCCNC(=N)N)C(=O)O [SXV4] (Ac-W[dP]RW[dP]R-OH) | > 500 | > 500 | > 500 | 98.17 ± 0.6 | 98.79 ± 0.28 | 98.55 ± 0.21 | – | – | –
7 | colistin [reference compound] | – | – | – | – | – | – | 91.85 ± 2.67 | 68.39 ± 2.93 | 9.88 ± 0.42

Source: publication PMC5666006, “Combating virulence of Gram-negative bacilli by OmpA inhibition” (Scientific Reports, 2017)
